Like-named read-outs stand apart in the source and are kept apart here. One block for each molecule: values may come before it.
Tests used:
[1] = molecular target: full length USP7 (Homo sapiens (Human), UniProt Q93009); experiment: Ub-AMC enzymatic assay with full-length USP7; type: biochemical; details: for IC50: 6 hours pre-incubation, Ub-AMC
Protocol: Both constructs were overexpressed in E. coli BL21 (DE3). Cells were grown at 37° C. to an OD of 0.9, cooled to 16° C., induced with 500 μM isopropyl-1-thio-D-galactopyranoside (IPTG), incubated overnight at 16° C., collected by centrifugation, and stored at −80° C. Cell pellets were sonicated in lysis buffer (25 mM Tris pH 8, 1 M NaCl, and 10 mM BME) supplemented with 10 μg/ml phenylmethanesulfonylfluoride (PMSF) and the resulting lysate was centrifuged at 30,000×g for 40 min. Ni-NTA beads (Qiagen) were mixed with lysate supernatant for 2 hours, and washed with lysis buffer supplemented with 25 mM imidazole. The bound protein was eluted with lysis buffer supplemented with 300 mM imidazole. The sample was then concentrated to 1 ml (30 kDa concentrator; Amicon Ultra, Millipore), and run on a Superdex 200 (GE healthcare) in buffer containing 25 mM HEPES pH 7.5, 200 mM NaCl, and 1 mM DTT. Fractions were pooled, concentrated and frozen at −80° C.
Full length USP7 was tested for its activity in Ubiquitin-AMC assay in presence or absence of inhibitors. USP7 (5 nM) was pre-incubated for 6 hours at room temperature with different concentrations of inhibitors or DMSO as a control in 50 mM HEPES pH 7.5, 0.5 mM EDTA, 11 μM ovalbumin, and 5 mM DTT. Ubiquitin-AMC (Boston Biochem) was then added to a final concentration of 500 nM. The initial rate of the reaction was measured by collecting fluorescence data at one minute intervals over 30-minute period using a Clariostar fluorescence plate reader at excitation and emission wavelength of 345 and 445 nm respectively. The calculated initial rate values were plotted against inhibitor concentrations to determine IC50s. All the experimental data were plotted using Prism GraphPad. All assays for each compound were performed at least twice for each compound.

[2] = test system: Ewing sarcoma cell lines, TP53 WT and mutant; experiment: Cell proliferation (CellTiter-Glo), panel of Ewing sarcoma cell lines; type: cell-based; details: same set of cell lines
Protocol: Cells were plated in 384-well culture-treated plates and allowed to settle overnight. After drug treatment and appropriate incubation time, cell viability was assessed using the CellTiter-Glo Luminescent Cell Viability Assay (Promega). Luminescence was read on a Fluostar Omega Reader (BMG Labtech).

[3] = test system: MCF7 cells; experiment: Drug synergy analysis (Chou-Talalay combination index), MCF7; type: cell-based
Text: (§1) Loewe Additivity is a dose-effect approach that estimates the effect of combining two drugs based on the concentration of each individual drug that produces the same quantitative effect (Goldoni and Johansson, 2007). […] They introduced the combination index (CI) scores to estimate the interaction between the two drugs. If CI<1, the drugs have a synergistic effect, and if CI>1, the drugs have an antagonistic effect. CI=1 means the drugs have an additive effect.

[4] = test system: TC32 cells; experiment: Drug synergy analysis (Chou-Talalay combination index), TC32; type: cell-based
Text: as §1, with “drugs.” for “drugs. If CI<1, the drugs have a synergistic effect, and if CI>1, the drugs have an antagonistic effect. CI=1 means the drugs have an additive effect.”

[5] = test system: MDM2-p53 signaling axis in MCF7 cells; experiment: Whole cell lysate Western blots of MCF7 cells (MDM2-p53 signaling axis); type: cell-based; details: wild-type TP53
[6] = test system: MCF7 cells; experiment: Cell cycle analysis by propidium iodide staining; type: cell-based; details: 1 μM, 24 hours
Protocol: For propidium iodide (PI) staining, treated cells (˜1 million per condition) were washed with cold PBS, then fixed in 80% ethanol overnight at −20° C. After fixing, cells were pelleted, washed with PBS, and reconstituted in 500 μL FxCycle PI/RNAse A staining solution (Thermo Fisher). Cells were stored overnight at 4° C. and analyzed using a BD Fortessa flow cytometer.

[7] = test system: MCF7 cells; experiment: Transcriptome profiling, 3' Digital Gene Expression RNA-seq; type: cell-based; details: 24 hours, low or high doses
Text: Overall, transcripts were detected for 7000-10,000 genes (7276 genes detected across all conditions).
The same report had also identified a set of dimerization partner, Retinoblastoma-like, E2F and multi-vulval class B (DREAM) complex target genes by combining p53 repression data (generated in part with Nutlin-3A-treated MCF7 cells) with cell cycle expression and DREAM component binding.

[8] = molecular target: USP7 catalytic domain (Homo sapiens (Human), UniProt Q93009); experiment: MS labeling of purified USP7 catalytic domain (intact MS, CE-MS); type: binding; details: 15 minutes incubation
USP7 catalytic domain, sequence (Q93009 208-560): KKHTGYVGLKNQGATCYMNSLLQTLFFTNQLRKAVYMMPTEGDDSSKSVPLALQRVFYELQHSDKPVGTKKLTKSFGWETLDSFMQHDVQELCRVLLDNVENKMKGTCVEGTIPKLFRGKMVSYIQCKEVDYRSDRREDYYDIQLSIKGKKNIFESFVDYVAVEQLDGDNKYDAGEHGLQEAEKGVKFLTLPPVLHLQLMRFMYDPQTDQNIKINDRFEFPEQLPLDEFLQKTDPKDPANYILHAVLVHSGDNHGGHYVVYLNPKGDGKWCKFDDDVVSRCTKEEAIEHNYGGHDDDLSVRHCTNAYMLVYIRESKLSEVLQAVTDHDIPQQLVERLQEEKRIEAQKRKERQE
Protocol: Purified USP7 catalytic domain was diluted to 20 μM in 10 μL labeling buffer (20 mM HEPES pH 7.5, 150 mM NaCl, 1 mM TCEP) and incubated for the indicated times with 50 μM (2.5×) compound. After incubation, samples were flash frozen in liquid nitrogen and stored at −80° C. until analysis.
Intact mass analysis was performed by injecting 5 μg USP7 catalytic domain onto a self-packed reversed phase column ( 1/32″ O.D.×500 um I.D., 5 cm of POROS 10R2 resin). After desalting, protein was eluted with an HPLC gradient (0-100% B in 4 minutes, A=0.2M acetic acid in water, B=0.2 M acetic acid in acetonitrile, flow rate ˜30 μL/min) into an LTQ ion trap mass spectrometer (ThermoFisher Scientific, San Jose, CA). Mass spectra were deconvoluted using MagTran1.03b2 software. Zhang, Z. & Marshall, A. G. A universal algorithm for fast and automated charge state deconvolution of electrospray mass-to-charge ratio spectra. J. Am. Soc. Mass Spectrom. 9, 225-233 (1998).
To identify sites of covalent modification, treated protein was reduced (10 mM dithiothreitol), alkylated (22.5 mM iodoacetamide), and digested with trypsin overnight at 37° C. Peptides were desalted using SP3 (Hughes, C. S. et al. Ultrasensitive proteome analysis using paramagnetic bead technology. Mol. Syst. Biol. 10, 757-757 (2014)), dried by vacuum centrifugation, and reconstituted in 1% formic acid/50% acetonitrile with 100 mM ammonium acetate. Peptides were then analyzed by CE-MS using a ZipChip CE system and autosampler (908 Devices, Boston, MA) interfaced to a QExactive HF mass spectrometer (ThermoFisher Scientific, San Jose, CA). Peptide solution was loaded for 30 seconds, and the mass spectrometer was operated in data dependent mode and subjected the 5 most abundant ions in each MS scan (60 k resolution, 3E6 target, lock mass enabled) to MS/MS (15 k resolution, 1E5 target, 100 ms max inject time). Dynamic exclusion was enabled with a repeat count of 1 and an exclusion time of 6 seconds. […]

[9] = Table 3, read-out: IC50 (μM), USP7 activity in USP7 assay
[10] = Table 1, read-out: IC50 (nM), USP7 activity in USP7 assay

full length USP7, sequence (Q93009 whole entry): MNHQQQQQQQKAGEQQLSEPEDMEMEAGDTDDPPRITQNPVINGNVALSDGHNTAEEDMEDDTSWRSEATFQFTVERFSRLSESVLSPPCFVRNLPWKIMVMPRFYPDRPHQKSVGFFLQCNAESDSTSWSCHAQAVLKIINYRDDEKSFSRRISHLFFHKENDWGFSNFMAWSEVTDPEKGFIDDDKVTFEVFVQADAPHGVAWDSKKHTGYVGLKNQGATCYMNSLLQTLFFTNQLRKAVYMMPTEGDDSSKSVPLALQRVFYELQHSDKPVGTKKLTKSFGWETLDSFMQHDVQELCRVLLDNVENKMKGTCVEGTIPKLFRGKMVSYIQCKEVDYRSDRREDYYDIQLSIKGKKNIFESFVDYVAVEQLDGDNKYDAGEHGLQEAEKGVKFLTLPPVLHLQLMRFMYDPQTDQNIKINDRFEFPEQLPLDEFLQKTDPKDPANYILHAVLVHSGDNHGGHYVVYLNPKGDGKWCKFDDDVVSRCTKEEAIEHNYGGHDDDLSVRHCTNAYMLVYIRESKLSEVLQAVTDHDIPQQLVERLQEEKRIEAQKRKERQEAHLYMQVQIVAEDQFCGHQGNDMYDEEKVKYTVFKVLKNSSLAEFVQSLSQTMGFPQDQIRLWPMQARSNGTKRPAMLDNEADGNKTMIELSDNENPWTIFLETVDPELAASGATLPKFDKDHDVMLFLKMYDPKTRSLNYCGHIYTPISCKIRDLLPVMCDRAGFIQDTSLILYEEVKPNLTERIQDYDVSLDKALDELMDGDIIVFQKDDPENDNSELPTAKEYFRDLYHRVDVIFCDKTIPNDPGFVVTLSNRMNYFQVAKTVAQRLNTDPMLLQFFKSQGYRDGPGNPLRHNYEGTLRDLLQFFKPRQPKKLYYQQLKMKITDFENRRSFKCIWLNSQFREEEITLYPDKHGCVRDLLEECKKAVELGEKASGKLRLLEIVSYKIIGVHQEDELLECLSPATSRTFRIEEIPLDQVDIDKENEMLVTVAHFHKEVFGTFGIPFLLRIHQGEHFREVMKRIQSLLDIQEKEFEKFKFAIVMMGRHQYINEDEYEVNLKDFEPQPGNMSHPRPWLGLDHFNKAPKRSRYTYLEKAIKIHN

SMILES: O=C(CCN1CCOCC1)Nc1ccc2c(=O)n(CC3(O)CCN(C(=O)[C@H](Cc4ccccc4)NC(=O)COc4ccc5c(Cl)c6c(nc5c4)CCCC6)CC3)cnc2c1
IC50 [1, 9]: 0.1 to 1 µM

SMILES: O=C(CCN1CCOCC1)Nc1ccc2c(=O)n(CC3(O)CCN(C(=O)C(CCCNC(=O)c4ccc5c(Cl)c6c(nc5c4)CCCC6)Cc4ccc(F)c(C(F)(F)F)c4)CC3)cnc2c1 (stereo not shown)
IC50 [1, 9]: 0.02 to 0.1 µM

SMILES: O=C(CCN1CCOCC1)Nc1ccc2c(=O)n(CC3(O)CCN(C(=O)C(CCCNC(=O)c4ccc5c(Cl)c6c(nc5c4)CCCC6)Cc4ccc(F)cc4F)CC3)cnc2c1 (stereo not shown)
IC50 [1, 9]: 0.02 to 0.1 µM

SMILES: CCc1c(-c2ccc3[nH]ncc3c2)cnc(N)c1-c1ccc(O)cc1 [GNE6640]
specificity for TP53-WT expressing cells [2]: little to no specificity for TP53-WT expressing cells

SMILES: Cc1ncc(Cl)cc1NCc1ccc(C(=O)N[C@@H](CC2CCCC2)C(=O)NC2CC2)s1 [GSK2830371]
interaction in combination with compound 6 [3]: mixed synergy and antagonism | combination index with compound 6 [4]: < 0.6

SMILES: COc1cc(C(=O)O)ccc1NC(=O)[C@@H]1N[C@@H](CC(C)(C)C)[C@](C#N)(c2ccc(Cl)cc2F)[C@H]1c1cccc(Cl)c1F [RG7388]
combination index with compound 6 [4]: < 0.6

SMILES: CN1CCN(CCC(=O)Nc2ccc3c(=O)n(CC4(O)CCN(C(=O)[C@H](CCCNC(=O)c5ccc6c(Cl)c7c(nc6c5)CCCC7)Cc5ccccc5)CC4)cnc3c2)CC1 [compound 7, (R)-N-(4-benzyl-5-(4-hydroxy-4-((7-(3-(4-methylpiperazin-1-yl)propanamido)-4-oxoquinazolin-3(4H)-yl)methyl)piperidin-1-yl)-5-oxopentyl)-9-chloro-5,6,7,8-tetrahydroacridine-3-carboxamide]
MDM2 protein level [5]: did not exert any of the same effects | cell cycle effect [6]: did not exert any of the same effects | transcriptional profile [7]: highly correlated with the vehicle (DMSO)-treated control cells

SMILES: COc1cccc2c1C(=O)c1c(O)c3c(c(O)c1C2=O)C[C@@](O)(C(=O)CO)C[C@@H]3O[C@H]1C[C@H](N)[C@H](O)[C@H](C)O1 [doxorubicin]
interaction in combination with compound 6 [3]: mixed synergy and antagonism | combination index with compound 6 [4]: < 0.6

SMILES: COc1cc([C@@H]2c3cc4c(cc3[C@@H](O[C@@H]3O[C@@H]5CO[C@@H](C)O[C@H]5[C@H](O)[C@H]3O)[C@H]3COC(=O)[C@H]23)OCO4)cc(OC)c1O [etoposide]
interaction in combination with compound 6 [3]: mixed synergy and antagonism

The next lines start with results.

IC50 [1, 9]: 0.02 to 0.1 µM
SMILES: CN1CCN(c2cccc3c(=O)n(CC4(O)CCN(C(=O)[C@@H](CCCNC(=O)c5ccc6c(Cl)c7c(nc6c5)CCCC7)Cc5ccccc5)CC4)cnc23)CC1

IC50 [1, 9]: 0.02 to 0.1 µM
SMILES: O=C(NCCC[C@@H](Cc1ccccc1)C(=O)N1CCC(O)(Cn2cnc3c(N4CCOCC4)cccc3c2=O)CC1)c1ccc2c(Cl)c3c(nc2c1)CCCC3

USP7 inhibitory activity ([1]; purified enzyme and native USP7): retained USP7 inhibitory activity
SMILES: C[C@@H]1NC(=O)N[C@@H]1CCCCCC(=O)NCCOCCOCCOCCC(=O)N1CCN(CC(=O)Nc2ccc3c(=O)n(CC4(O)CCN(C(=O)CCCCNC(=O)c5ccc6c(Cl)c7c(nc6c5)CCCC7)CC4)cnc3c2)CC1 [compound 6-DTB, 9-chloro-N-(5-(4-hydroxy-4-((7-(2-(4-(19-((4R,5S)-5-methyl-2-oxoimidazolidin-4-yl)-14-oxo-4,7,10-trioxa-13-azanonadecanoyl)piperazin-1-yl)acetamido)-4-oxoquinazolin-3(4H)-yl)methyl)piperidin-1-yl)-5-oxopentyl)-5,6,7,8-tetrahydroacridine-3-carboxamide]

IC50 against USP7 (range in words) ([1]; full-length USP7, Ub-AMC): nanomolar range
SMILES: CN1CCN(CCC(=O)Nc2ccc3c(=O)n(CC4(O)CCN(C(=O)C(CCCNC(=O)c5ccc6cc7c(nc6c5)CCCC7)Cc5ccccc5)CC4)cnc3c2)CC1 (stereo not shown) [compound 40, N-(4-benzyl-5-(4-hydroxy-4-((7-(3-(4-methylpiperazin-1-yl)propanamido)-4-oxoquinazolin-3(4H)-yl)methyl)piperidin-1-yl)-5-oxopentyl)-5,6,7,8-tetrahydroacridine-3-carboxamide]
labeling of USP7 catalytic domain by MS [8]: unable to label the USP7 catalytic domain

IC50 [1, 10]: 0.02 to 0.1 µM
SMILES: CN1CCN(CCC(=O)Nc2ccc3c(=O)n(CC4(O)CCN(C(=O)CCCCNC(=O)c5ccc6c(Cl)c7c(nc6c5)CCCC7)CC4)cnc3c2)CC1 [drawing 141]

IC50 [1, 10]: < 0.02 µM
SMILES: CN1CCN(CCC(=O)Nc2ccc3c(=O)n(CC4(O)CCN(C(=O)[C@@H](CCCNC(=O)c5ccc6c(Cl)c7c(nc6c5)CCCC7)Cc5ccccc5)CC4)cnc3c2)CC1 [drawing 146]

IC50 [1, 10]: 0.1 to 1 µM
SMILES: CN1CCN(CCC(=O)Nc2ccc3c(=O)n(CC4(O)CCN(C(=O)[C@H](CCCNC(=O)c5ccc6c(Cl)c7c(nc6c5)CCCC7)Cc5ccccc5)CC4)cnc3c2)CC1 [drawing 147]

IC50 ([1]; Table 2, read-out: IC50 (μM), USP7 activity in USP7 assay): 0.1 to 1 µM
SMILES: CN1CCN(CCC(=O)Nc2ccc3c(=O)n(CC4(O)CCN(C(=O)C(CCCNC(=O)c5ccc6cc7c(nc6c5)CCCC7)Cc5ccccc5)CC4)cnc3c2)CC1 (stereo not shown) [drawing 180]
